This is an account of results in patent publication US5041581A (priority 1986, dated 1991).

One data set relates to L1210 cells. In words: In vitro growth inhibition of L1210 leukemic cells (96 hours, Coulter Counter). It counts as cell-based, murine. The conditions noted are these: footnote of Table 5; 5760 min. As for the experimental part:
Four ml of cell suspension were added to culture tubes and the appropriate concentration of free PT or L-PT was added (from 0.01 micro g/ml to 10 micro g/ml final concentration). After 96 hours, the cell concentration of control and experimental cultures were calculated with a Coulter Counter (Coulter Electronics, Hialeah, FLA) and the percent inhibition calculated. The following preparations were tested: free PT, DMPG, DMPC:DMPG 7:3, DMPG-PT and DMPC:DMPG 7:3-PT.

The subject of the next data set is L1210 mouse leukemia. Put plainly: In vivo antitumor activity against L1210 mouse leukemia (L1210-BDF1 mouse model). More on the design: species or system BDF1 mice. As for the experimental part:
BDF1 mice were purchased from Charles River (Wilmington, MA). Groups of 6-8 mice weighing 18-22 gm were inoculated ip with 1×10^6 L1210 leukemia cells on day 0. L1210 cells were kept in DBA2 mice were weekly passages between the different experiments. All L-PT preparations were injected ip in volumes of 0.1 to 0.3 ml 24 hours after tumor inoculation. Two different schedules of administration were used: a single injection on day 1 or an injection on days 1, 5 and 9 (multiple). […] Clinical behavior and survival times were monitored until all animals had died. Results were expressed as % T/C (median survival time of treated mice/median survival time of control mice ×100) and number of long-term survivors. Mice living more than 30 days and more than 60 days were considered to be long-term survivors for the single and multiple injection schedule respectively. All L-PT preparations tested for antitumor activity were prepared under sterile conditions on the same day of the experiment.
The antitumor activity against L-1210 murine leukemia of the different L-PT analogs was assessed in an L-1210-BDF, mouse model (tumor inoculation day 0, treatment day 1, ip) as described earlier herein.
These liposome-encapsulated compounds were tested to determine their optimal dose and effectiveness as inhibitors of in vivo tumor growth as described in Example 12.

In data set [1] the test system is liver metastases of M5076 reticulosarcoma. Put plainly: Treatment of established liver metastases of mouse M5076 reticulosarcoma. The following applies: for No. Liver Metastases, mean ± SD: day 30, 7.5 mg/kg days 8, 12, 16, 10^5 cells iv, 7.5 mg/kg. It is filed as in vivo, mouse (C57BL/6). How it is done:
Animals were treated on days 8, 12, and 16 with
Treated animals were sacrificed on day 30,
Animals were treated on days 4, 8, and 12 with
Treated animals were sacrificed on day 45,

Data set [2] shares this test system. Put plainly: Prophylaxis of liver metastases of mouse M5076 reticulosarcoma. It counts as in vivo, mouse (C57BL/6). The conditions noted are these: day 21, 10 mg/kg day -1, 10^4 cells iv. An excerpt: NeodecanoatoRacemic-DACH. Animals were inoculated on day 0 with 10^4
M5076 cells intravenously.
Treated animals were sacrificed on day 21, the livers dissected,
placed in Bouin's fixative, and the number of tumor colonies counted.

For data set [3] the following is noted: MLV, 48 hours in 0.9% NaCl solution; cited from earlier work.

For `N.N.[Cl][Pt][Cl]` [CDDP, Cis-platinum, reference compound], the “CDDP ID50” value in the data set on L1210 cells is 0.1 micro g/ml. Besides, the “% T/C” value in the data set on L1210 mouse leukemia (7.5 mg/kg × 3 ip, days 1, 5 and 9) was 253%; in the data set with L1210 mouse leukemia (10 mg/kg ip day 1, Exp. 1), 167%; in the data set on L1210 mouse leukemia (10 mg/kg ip day 1, Exp. 3), 189%; in the data set on L1210 mouse leukemia (10 mg/kg ip day 1, dissolved in saline (Table 8)) it was 175%. In addition, in the data set on L1210 mouse leukemia (10 mg/kg ip day 1, Exp. 3), the “Number of Survivors on Day 30” value is on record as 1/6. Further, the “% T/C, mean” value with L1210 mouse leukemia (10 mg/kg, single ip dose, means of three experiments) was 178%. Moreover, the Long-term survivors entry in the data set on L1210 mouse leukemia (single ip dose, more than 30 days) is reported as “one or two mice of six”. For the same molecule, the “No. Liver Metastases, mean ± SD” value in data set [1] (listed as Cis-platinum) turned out to be 114 ± 38; in data set [1] (listed as cis-platinum), 114 ±38; in data set [2] (listed as Cis-platinum), 256 ± 54; in data set [2] (listed as cis-platinum), 256 ±54. In addition, the “animals with 175 or more liver metastases” value in data set [1] (day 45, 7.5 mg/kg days 4, 8, 12) is given as 4/6. Moreover, the “animals that died before day 45” value in data set [1] (groups of 6, days 4, 8, and 12) is “Two”. For the same molecule, in data set [3], the stability was 75%.
